Assay results from patent US20190225652A1, “GENERATION OF PEPTIDES” (Hexima Limited, priority 2015, published 2019).

B1: rOaAEP3: recombinant Oldenlandia affinis asparaginyl endopeptidase OaAEP3 (protein)
chain: MVRYLAGAFQVVLLVVILSDIAISEERTDGYLKLPTEVSRFFRTPEQSSDGGDDSIGTRWAVLIAGSKGYDNYRHQADVCHAYQILKRGGLKDENIVVFMYDDIAYNESNPRPGVIINSPHGSDVYAGVPKDYTGDEVNAKNFLAAILGNKSAITGGSGKVVDSGPNDHIFIYYTDHGAPGVIGMPSKPYLYADELNDALRKKHASGTYKSMVFYLEACEAGSMFDGLLPDGLNIYALTASNTTEGSWCYYCPGQDAGPPPEYSVCLGDFFSIAWLEDSDVHNLRSETLNQQYHNVKNRISYASHATQYGDLKRGVEGLFLYLGSNPENDNYTFVDDNVVRPSSKAVNQRDADLVHFWEKFRKAPEGSSKKEEAQKQILEAMSHRVHIDSSINLIGKLLFGIEKGHKILTAVRSAGHPLVDDWACLRSLVRTFETHCGSLSQYGMKHTRTLANICNAGITEEQMAEAASQACVSIPSNPWSSHDGGFSA
modifications: Oldenlandia affinis OaAEP3
B2: rOaAEP4: recombinant Oldenlandia affinis asparaginyl endopeptidase OaAEP4 (protein)
chain: MVRYPAGAVLLLVVLSVVAVDGARDGYLKLPSEVSDFFRPRNTNDGDDSVGTRWAVLLAGSNGYWNYRHQADLCHAYQILKRGGLKDENIVVFMYDDIAYNEENPRPGVIINSPHGSDVYAGVPKDYTGDEVNAKNFLAAILGNKSAITGGSGKVVDSGPNDHIFIYYTDHGAPGVIGMPSKPYLYADELNDALRKKHASGTYKSMVFYLEACEAGSMFDGLLPDGLNIYALTASNTTEGSWCYYCPGQDAGPPPEYSVCLGDFFSIAWLEDSDVHNLRSETLNQQYHNVKNRISYASHATQYGDLKRGVEGLFLYLGSNPENDNYTFVDDNVVRPSSKAVNQRDADLVHFWEKFRKAPEGSSKKEEAQKQILEAMSHRVHIDSSINLIGKLLFGIEKGHKILTAVRSAGHPLVDDWACLRSLVRTFETHCGSLSQYGMKHTRTLANICNAGITEEQMAEAASQACVSIPSNPWSSHDGGFSA
modifications: OaAEP4 aa
notes: recombinant Oldenlandia affinis asparaginyl endopeptidase OaAEP4

Key:
[1] = system: rOaAEP1b; experiment: Cyclization assay with rOaAEP1b (MALDI MS); assay type: biochemical, Oldenlandia affinis
Sequence of rOaAEP1b (as listed by the source): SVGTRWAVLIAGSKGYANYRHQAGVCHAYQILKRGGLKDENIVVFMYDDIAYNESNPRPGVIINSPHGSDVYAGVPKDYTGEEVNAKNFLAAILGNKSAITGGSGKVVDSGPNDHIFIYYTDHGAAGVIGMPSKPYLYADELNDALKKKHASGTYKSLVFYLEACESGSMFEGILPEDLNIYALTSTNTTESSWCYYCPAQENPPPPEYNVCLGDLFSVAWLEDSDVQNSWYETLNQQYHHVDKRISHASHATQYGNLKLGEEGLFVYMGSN

[2] = system: rOaAEP1b, rOaAEP3, rOaAEP4 and rOaAEP5; experiment: Cyclization assay with rOaAEP1b, rOaAEP3, rOaAEP4 and rOaAEP5 (MALDI/ESI MS); assay type: biochemical, Oldenlandia affinis; conditions: peptides with added AEP recognition residues, 280 μM, enzymes 19.7 μg mL^−1 total protein, MS
Experimental: Linear target peptides (280 μM, unless otherwise indicated) were incubated with rOaAEP1b, rOaAEP3, rOaAEP4 or rOaAEP5 (total protein concentration as indicated in the description of figures) in activity buffer (50 mM sodium acetate, 50 mM NaCl, 1 mM ethylenediaminetetraacetic acid [EDTA], 0.5 μM Tris(2-carboxyethyl)phosphine hydrochloride [TCEP], pH 5). The reaction was allowed to proceed for up to 22 hours at room temperature and was analysed by matrix-assisted laser desorption/ionization mass spectrometry (MALDI MS), high performance liquid chromatography (HPLC) or nuclear magnetic resonance (NMR) as appropriate.
Cyclization or inter-molecular ligation of linear target peptides was monitored by MALDI or ESI MS. In both cases, the reaction mixture (5-50 μL) was de-salted using C18 zip tips (Millipore) and eluted in 4 μL 50-75% v/v acetonitrile, 0.1% v/v trifluoroacetic acid (TFA).
For MALDI MS, a saturated MALDI matrix solution (α-cyano-4-hyroxycinnamic acid, CHCA, Bruker) prepared in 95% v/v acetonitrile, 0.1% v/v TFA was diluted 1:22 such that the final matrix solution comprised 90% v/v acetonitrile, 0.1% v/v TFA and 1 mM NH4H2PO4. Eluted samples were mixed 1:4 with the MALDI matrix, spotted onto a MALDI plate and analyzed by an Ultraflex III TOF/TOF (Bruker) in positive reflector mode. Data were analyzed using the flexAnalysis program (Bruker).
For ESI MS, 96 μl of 75% v/v acetonitrile, 01% v/v TFA was added to the de-salted sample. The sample was then injected into a MicroTOF Q (Bruker) and data was collected in positive ionisation mode. The mass of ligated or cyclized product was determined by charge deconvolution using the Compass DataAnalysis program (Bruker).
The ability of activated AEPs (rOaAEP1b, rOaAEP3, rOaAEP4 and rOaAEP5) to cyclize peptide substrates structurally unrelated to cyclotides was tested in the cyclization assay described in the Materials and Methods. The anti-malarial peptide R1 (Harris et al. (2009) J Biol Chem 284(14):9361-9371; Harris et al. (2005) Infect Immun 73(10):6981-6989); Bac2A, a linear derivative of the bovine peptide bactenecin (Wu and Hancock (1999) Antimicrob Agents Ch 43:1274-1276); and the anti-fungal peptide EcAMP1 (Nolde et al. (2011) J Biol Chem 286(28):25145-25153) were produced with additional AEP recognition residues and used as the substrates.
To investigate the sequence requirements for in vitro cyclization, R1 was used as a model peptide. The recognition residues added to this model peptide were sequentially trimmed to determine the minimal requirements for AEP-mediated cyclization. The N- and C-terminal recognition residues were also substituted with alternate amino acids to determine if particular classes of residues were preferred for cyclization by these recombinant AEPs. The ability of activated AEPs (rOaAEP1b, rOaAEP3, rOaAEP4 and rOaAEP5) to cyclize the R1 peptide with varied flanking sequences was then tested in the cyclization assay described in the Materials and Methods (FIG. 10; Table 3).

[3] = system: target peptide-linker-ubiquitin-6xHis fusion protein; experiment: AEP-mediated processing of target peptides fused to ubiquitin; assay type: biochemical; conditions: kalata B1-ubiquitin 260 μg mL^−1, AEP 19.7 μg mL^−1 total protein, 22 h, SDS-PAGE/anti-6xHis Western blot
[4] = Protease activity against fluorogenic substrate Z-AAN-MCA; assay type: biochemical; conditions: enzyme ~5 μg mL^−1 total protein, Z-AAN-MCA 100 μM, 37° C., 60 minutes
Experimental: FIG. 15 is a graphical representation of the activity of recombinant O. affinis AEPs (˜5 μg mL^−1 total protein) and rhuLEG (1 μg mL^−1 total protein) over time against the fluorogenic substrate Z-AAN-MCA (100 μM). Activity is tracked at 1 minute intervals at 37° C. for 60 minutes using excitation and emission wavelengths of 360 and 460 nm respectively. A single representative experiment is shown. RFU, relative fluorescence units.
To assay activity of recombinant AEPs (rOaAEP1b, rOaAEP3, rOaAEP4 or rOaAEP5) against both internally-quenched and other fluorescent peptides, substrate and enzyme were diluted as appropriate in activity buffer (50 mM sodium acetate, 50 mM NaCl, 1 mM EDTA, 0.5 μM TCEP, pH 5). To assay activity of recombinant human legumain (rhuLEG; R&D systems) against the same substrates, the enzyme was first activated by incubation in 50 mM sodium acetate, 100 mM NaCl, pH 4 (4 μL buffer/1 μL enzyme) for 2 hours at 37° C. Substrates and activated rhuLEG were diluted in 50 mM acetate, 0.1% v/v triton X 100, 0.5 μM TCEP pH 5.5 or in 50 mM MES, 250 mM NaCl, pH 5 as required. Diluted enzyme and substrate were added to black, flat bottomed microtiter plates in a total assay volume of 100-200 μL. The change in fluorescence intensity over time was monitored on a SpectraMax M2 (Molecular Devices) using excitation/emission wavelengths of 320/420 nm (IQF peptides) or 360/460 nm (other fluorescent peptides).
AEP activity has traditionally been tracked by monitoring cleavage of the fluorescent substrate Z-AAN-MCA (where Z is carboxybenzyl; MCA is 7-amido-4-methylcoumarin) [Saska et al. (2007) supra; Rotari et al. (2001) Biol. Chem. 382:953-959]. Cleavage C-terminal to the Asn liberates the fluorophore which then fluoresces to report substrate cleavage. […] They are Ac-YVAD-CHO, which is routinely used to identify AEP activity (Hatsugai et al. (2004) Science 305(5685): 855-858) and Ac-STRN-CHO, which represents the P1-P4 residues of the C-terminal kB1 cleavage site. These traditional routes of identifying AEP activity will therefore likely be ineffective for identification of AEPs with cyclizing ability.

[5] = rOaAEP1b 12 μg mL^−1 total protein, 22 hours, peak area as percentage of total peak area of that peptide, average of three experiments

Molecule | Cyclic product (%) [1, 5] [%] | Linear precursor (%) [1, 5] [%] | other results
VFAEFLPLFSKFGSRMHILKNGL (rOaAEP1b-mediated processing) [SEQ ID NO: 29, R1 peptide derivative] | 49.6 | 27.7 | Linear product (%) [1, 5]: 27.7%
QLVFAEFLPLFSKFGSRMHILKNGL (rOaAEP1b-mediated processing) [SEQ ID NO: 30, R1 peptide derivative] | 93.1 | 6.9 | 
GLPVFAEFLPLFSKFGSRMHILKSTRNGLP (rOaAEP1b-mediated processing) [SEQ ID NO: 26, R1 peptide derivative] | 78.8 | 21.2 | 
KLVFAEFLPLFSKFGSRMHILKNGL (rOaAEP1b-mediated processing) [SEQ ID NO: 31, R1 peptide derivative] | 82.2 | 17.8 | 
GLPGSGRGSCRSQCMRRHEDEPWRVQECVSQCRRRRGGGDTRNGLP (additional AEP recognition residues; EcAMP1) [anti-fungal peptide EcAMP1 with additional AEP recognition residues] |  |  | cyclization of linear precursor peptide by recombinant AEPs [2]: efficiently cyclized
GLVFAEFLPLFSKFGSRMHILKNG (rOaAEP1b-mediated processing) [SEQ ID NO: 28, R1 peptide derivative] |  | 100 | 
rOaAEP5: recombinant Oldenlandia affinis asparaginyl endopeptidase OaAEP5 |  |  | proportion of fusion protein enzymatically processed (loss of precursor) [3]: the bulk of the precursor was being enzymatically processed; activity against Z-AAN-MCA [4]: nor rOaAEP1b, rOaAEP3, rOaAEP4 or rOaAEP5 (FIG. 15) had detectable activity
GLPVFAEFLPLFSKFGSRMHILKSTRNGL (R1) [anti-malarial peptide R1 produced with additional AEP recognition residues] |  |  | cyclization of linear precursor peptide by recombinant AEPs [2]: efficiently cyclized
GLVFAEFLPLFSKFGSRMHILKNGL (rOaAEP1b-mediated processing) [SEQ ID NO: 27, R1 peptide derivative] | 92.9 | 7.1 | 
VFAEFLPLFSKFGSRMHILK [native R1 peptide, reference compound] |  |  | processing/cyclization by rOaAEP1b ([1]; MALDI MS): No processing
GLPRLARIVVIRVARTRNGLP (Bac2A) |  |  | cyclization of linear precursor peptide by recombinant AEPs [2]: efficiently cyclized
B1 |  |  | proportion of fusion protein enzymatically processed (loss of precursor) [3]: the bulk of the precursor was being enzymatically processed; activity against Z-AAN-MCA [4]: nor rOaAEP1b, rOaAEP3, rOaAEP4 or rOaAEP5 (FIG. 15) had detectable activity
B2 |  |  | proportion of fusion protein enzymatically processed (loss of precursor) [3]: a smaller proportion of the precursor protein was processed; activity against Z-AAN-MCA [4]: nor rOaAEP1b, rOaAEP3, rOaAEP4 or rOaAEP5 (FIG. 15) had detectable activity
